# Target: human urokinase (uPA) binding to the specific receptor uPAR (Homo sapiens, UniProt Q03405)
# Test: ELISA test of inhibition of uPA binding to the receptor uPAR
# Conditions: compound concentration 1 μg/ml, 96-well microtitre plates
# Protocol: The compound of the invention were tested (ELISA test) as human urokinase (uPA) inhibitors, which bind to the specific receptor uPAR mAk (BIO-R4), in accordance with the procedure described by Rettenberger et al. In Biol. Chem. Hoppe Seyler 376, 587-94 (1995). The assays are carried out in microtitre plates (96 wells).
# Sequence of human urokinase (uPA) binding to the specific receptor uPAR (Q03405 23-305 limits assumed): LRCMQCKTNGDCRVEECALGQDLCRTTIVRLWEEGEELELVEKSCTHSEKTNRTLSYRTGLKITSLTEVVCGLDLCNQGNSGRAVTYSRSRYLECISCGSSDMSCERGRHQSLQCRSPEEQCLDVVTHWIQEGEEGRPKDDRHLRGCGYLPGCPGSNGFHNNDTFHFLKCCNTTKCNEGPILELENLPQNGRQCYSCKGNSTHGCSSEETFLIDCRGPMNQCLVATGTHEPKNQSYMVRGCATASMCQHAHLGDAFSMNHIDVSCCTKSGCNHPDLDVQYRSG
SMILES,inhibition at 1 µg/mL [%],% Inhibition at 1 μg/ml concentration [%]
"Cc1ccc(COc2ccc(OCc3ccc(C)cc3)c(C=C3SC(=S)N(CC(=O)O)C3=O)c2)cc1 [Example 2, 5-[(2,5-Bis-(4-methylphenylmethoxy)phenyl)methylene]-4-oxo-2-thioxo-3-thiazolidineacetic Acid]",68,–
"Cc1ccc(COc2ccc(C=C3SC(=S)N(CC(=O)O)C3=O)c(OCc3ccc(C)cc3)c2)cc1 [Compound 2, 5-[(2,4-Bis-(4-methylphenylmethoxy)phenyl)methylene]-4-oxo-2-thioxo-3-thiazolidineacetic acid]",48,–
"Cc1ccc(COc2ccc(C=C3SC(=S)N(C(C(=O)O)c4ccc(Cl)cc4)C3=O)c(OCc3ccc(C)cc3)c2)cc1 (stereo not drawn) [Example 24, 2-{5-[(2,4-Bis-(4-methylphenylmethoxy)phenyl)methylene]-4-oxo-2-thioxo-3-thiazolidine}-2-(4-chlorophenyl)acetic Acid]",–,69
"Cc1ccc(COc2ccc(C=C3SC(=S)N(C(C(=O)O)c4ccccc4)C3=O)c(OCc3ccc(C)cc3)c2)cc1 (stereo not drawn) [Example 22, 2-{5-[(2,4-Bis-(4-methylphenylmethoxy)phenyl)methylene]-4-oxo-2-thioxo-3-thiazolidine}-2-phenylacetic Acid]",–,60
"Cc1ccc(COc2ccc(C=C3SC(=S)N(C(Cc4ccccc4)C(=O)O)C3=O)c(OCc3ccc(C)cc3)c2)cc1 (stereo not drawn) [Example 23, 2-{5-[(2,4-Bis-(4-methylphenylmethoxy)phenyl)methylene]-4-oxo-2-thioxo-3-thiazolidine}-3-phenypropionic Acid]",–,54

# More lines, main results first:
inhibition at 1 µg/mL [%],SMILES,% Inhibition at 1 μg/ml concentration [%]
63,"O=C(O)CN1C(=O)C(=Cc2cc(OCCCc3ccccc3)ccc2OCc2cccs2)SC1=S [Example 15, 5-[(2-(2-Thienylmethoxy)-5-(3-phenylpropoxy)phenyl)methylene]-4-oxo-2-thioxo-3-thiazolidineacetic Acid]",–
53,"O=C(O)CN1C(=O)C(=Cc2cc(OCCCc3ccccc3)ccc2OCc2ccccc2)SC1=S [Example 13, 5-[(2-Phenylmethoxy-5-(3-phenylpropoxy)phenyl)methylene]-4-oxo-2-thioxo-3-thiazolidineacetic Acid]",–
57,"O=C(O)CN1C(=O)C(=Cc2cc(OCCCc3ccc(Cl)cc3)ccc2OCCCc2ccc(Cl)cc2)SC1=S [Example 6, 5-[(2,5-Bis-(3-(4-chlorophenyl)propoxy)phenyl)methylene]-4-oxo-2-thioxo-3-thiazolidine-acetic Acid]",–

# System: not given
# Test: not given
# Conditions: not given
row,melting point [°C],SMILES
1,211,"Cc1ccc(COc2ccc(C=C3SC(=S)N(CC(=O)O)C3=O)c(OCc3ccc(C)cc3)c2)cc1 [Compound 2, 5-[(2,4-Bis-(4-methylphenylmethoxy)phenyl)methylene]-4-oxo-2-thioxo-3-thiazolidineacetic acid]"

# Reference: US6506755B2, “Thiazolidinecarboxyl acids” (Hoffmann-La Roche Inc., priority 2000, dated 2003)
